Assay results: US8927009B2 (AbbVie Inc., priority 2009, dated 2015)
Values belong to the compound of their own block, whether it stands above or below them.

Experiments:
[1] = Solubility in lipid solvents and solvent mixtures in ambient conditions; type: physicochemical; settings: listed as Parent (Form I)
Procedure: Solubility of ABT-263 parent (free base, crystalline Form I) and ABT-263 bis-HCl salt was tested in a variety of lipid solvents and solvent mixtures in ambient conditions. Trademarked solvents in this study, unless identified hereinabove, are as follows (substantially equivalent products from other manufacturers can be substituted if available): • Miglyol 810™ of Sasol: caprylic/capric triglycerides; • Capmul MCM™ of Abitec: glyceryl caprylate/caprate; • Captex 300™ of Abitec: caprylic/capric triglycerides; • Labrafil M 2125 CS™ of Gattefossé: polyoxyethylene glyceryl linoleate; • Tween 20™ of Uniqema: polysorbate 20; • Labrasol™ of Gattefossé: polyoxyethylene glyceryl caprylate/caprate; • Cremophor RH40™: polyoxyethyene (40) hydrogenated castor oil. “PE-91” is Phosal 53 MCT™+ethanol, 9:1 by volume. “LOT-343” is Labrafil M 1944 CS™+oleic acid+Tween 80™, 30:40:30 by weight.
In some cases, indicated in Table 4 by an asterisk (*), solubility was initially high but precipitation occurred upon standing.

[2] = Drug solubility in ternary excipient systems; type: physicochemical; design: key: ✓: vehicle miscible, or drug fully dissolved in vehicle; x: vehicle immiscible or miscible but turbid, or residual solids present (due to undissolved drug or precipitation); settings: 10% salt, 20% free base, listed as free base
Source text: Solvents evaluated included Labrafil M 1944 CS™, Imwitor 742™, oleic acid, Capmul PG-8™, Capmul PG-12™, Lauroglycol 90™ (propylene glycol monolaurate, available from Gattefossé) and Phosal 53 MCT™. Surfactants evaluated included Tween 80™, Cremophor RH40™, Gelucire 44/14™ (polyoxyethylene glyceryl laurate, available from Gattefossé) and Labrasol™.

Bcl-2 = Bcl-2 (Homo sapiens, UniProt P10415); settings: cited from earlier work
Bcl-XL = Bcl-XL (Homo sapiens, UniProt Q07817); settings: cited from earlier work
Bcl-w = target: T1, Bcl-w (Homo sapiens, UniProt Q92843); settings: cited from earlier work
T1 sequence (Q92843 1-193): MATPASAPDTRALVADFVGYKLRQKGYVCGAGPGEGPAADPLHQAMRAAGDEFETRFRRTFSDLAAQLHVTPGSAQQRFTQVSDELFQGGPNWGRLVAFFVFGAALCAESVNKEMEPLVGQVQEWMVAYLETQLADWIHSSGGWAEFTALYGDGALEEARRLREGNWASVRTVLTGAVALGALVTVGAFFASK

Bcl-XL, sequence (Q07817 whole entry): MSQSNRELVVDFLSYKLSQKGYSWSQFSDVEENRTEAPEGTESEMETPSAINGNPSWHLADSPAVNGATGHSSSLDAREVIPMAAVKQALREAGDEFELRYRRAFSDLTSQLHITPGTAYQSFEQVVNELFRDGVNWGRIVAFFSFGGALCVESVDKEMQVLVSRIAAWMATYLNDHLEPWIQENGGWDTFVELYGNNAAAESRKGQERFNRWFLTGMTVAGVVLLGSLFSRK
Bcl-2, sequence (P10415 whole entry): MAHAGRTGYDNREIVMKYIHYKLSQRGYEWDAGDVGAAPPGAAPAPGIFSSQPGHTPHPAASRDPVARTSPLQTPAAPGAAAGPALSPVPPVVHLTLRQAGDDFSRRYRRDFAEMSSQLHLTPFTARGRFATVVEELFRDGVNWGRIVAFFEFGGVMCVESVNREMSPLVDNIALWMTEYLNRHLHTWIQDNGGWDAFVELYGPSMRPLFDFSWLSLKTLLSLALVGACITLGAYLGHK

Solubility ([1]; in Labrafil M 2125 CS, ambient conditions): >290 mg/g | Solubility ([1]; in PE-91 (Phosal 53 MCT + ethanol 9:1 by volume), ambient conditions): >250 mg/g | Solubility ([1]; in PEG-400, ambient conditions): >200 mg/g | Solubility ([1]; in corn oil, ambient conditions): <86 mg/g | Solubility ([1]; in sesame oil, ambient conditions): <75 mg/g | ABT-263 solubility ([2]; Imwitor 742/Labrafil M 1944 CS/Cremophor RH40 (ILC) 40:40:20 % by weight): x | ABT-263 solubility ([2]; Imwitor 742/Labrafil M 1944 CS/Cremophor RH40 (ILC) 50:30:20 % by weight): x | ABT-263 solubility ([2]; Imwitor 742/Labrafil M 1944 CS/Cremophor RH40 (ILC) 50:40:10 % by weight): x | ABT-263 solubility ([2]; Imwitor 742/Labrafil M 1944 CS/Cremophor RH40 (ILC) 60:30:10 % by weight): x | ABT-263 solubility ([2]; Imwitor 742/Labrafil M 1944 CS/Labrasol (ILL) 40:40:20 % by weight): x | ABT-263 solubility ([2]; Imwitor 742/Labrafil M 1944 CS/Labrasol (ILL) 50:30:20 % by weight): x | ABT-263 solubility ([2]; Imwitor 742/Labrafil M 1944 CS/Labrasol (ILL) 50:40:10 % by weight): x | ABT-263 solubility ([2]; Imwitor 742/Labrafil M 1944 CS/Labrasol (ILL) 60:30:10 % by weight): x | ABT-263 solubility ([2]; Labrafil M 1944 CS/Imwitor 742/Tween 80 (LIT) 30:40:30 % by weight): x | ABT-263 solubility ([2]; Labrafil M 1944 CS/Imwitor 742/Tween 80 (LIT) 30:45:25 % by weight): x | ABT-263 solubility ([2]; Labrafil M 1944 CS/Imwitor 742/Tween 80 (LIT) 40:30:30 % by weight): x | ABT-263 solubility ([2]; Labrafil M 1944 CS/Imwitor 742/Tween 80 (LIT) 40:35:25 % by weight): x | ABT-263 solubility ([2]; Lauroglycol 90/Labrafil M 1944 CS/Labrasol (LLL) 50:40:10 % by weight): x | ABT-263 solubility ([2]; Lauroglycol 90/Labrafil M 1944 CS/Labrasol (LLL) 60:30:10 % by weight): x
Structure (SMILES): CC1(C)CCC(c2ccc(Cl)cc2)=C(CN2CCN(c3ccc(C(=O)NS(=O)(=O)c4ccc(N[C@H](CCN5CCOCC5)CSc5ccccc5)c(S(=O)(=O)C(F)(F)F)c4)cc3)CC2)C1 [ABT-263]

Structure (SMILES): CN(C)CC[C@H](CSc1ccccc1)Nc1ccc(S(=O)(=O)NC(=O)c2ccc(N3CCN(Cc4ccccc4-c4ccc(Cl)cc4)CC3)cc2)cc1[N+](=O)[O-] [ABT-737]
binding affinity (Bcl-2): < 1 nM | binding affinity (Bcl-XL): < 1 nM | binding affinity (Bcl-w): < 1 nM
